Assay results: US5298521A, “1,5-diphenyl-3-pyrazolylalkyl-N-hydroxydithiocaramates, compositions and use” (Ortho Pharmaceutical Corporation, priority 1993, dated 1994)

Columns and labels:
[1] = biological target: T1, RBL-1 cell cyclooxygenase (Rattus norvegicus, UniProt Q63921); experiment: RBL-1 cell cyclooxygenase, cell homogenate supernatant (Procedure II); format: biochemical; settings: RBL-1 homogenate; for inhibition at 3 µM: read-out: PROC. II % INHIBITION CO; for IC50: read-out: PROC. II IC50 CO
T1 construct: the supernatant was saved as the source of enzymes; endogenous in cells; host or cells: RBL-1 rat basophilic leukemia cells, homogenate supernatant
T1 sequence (Q63921 27-602): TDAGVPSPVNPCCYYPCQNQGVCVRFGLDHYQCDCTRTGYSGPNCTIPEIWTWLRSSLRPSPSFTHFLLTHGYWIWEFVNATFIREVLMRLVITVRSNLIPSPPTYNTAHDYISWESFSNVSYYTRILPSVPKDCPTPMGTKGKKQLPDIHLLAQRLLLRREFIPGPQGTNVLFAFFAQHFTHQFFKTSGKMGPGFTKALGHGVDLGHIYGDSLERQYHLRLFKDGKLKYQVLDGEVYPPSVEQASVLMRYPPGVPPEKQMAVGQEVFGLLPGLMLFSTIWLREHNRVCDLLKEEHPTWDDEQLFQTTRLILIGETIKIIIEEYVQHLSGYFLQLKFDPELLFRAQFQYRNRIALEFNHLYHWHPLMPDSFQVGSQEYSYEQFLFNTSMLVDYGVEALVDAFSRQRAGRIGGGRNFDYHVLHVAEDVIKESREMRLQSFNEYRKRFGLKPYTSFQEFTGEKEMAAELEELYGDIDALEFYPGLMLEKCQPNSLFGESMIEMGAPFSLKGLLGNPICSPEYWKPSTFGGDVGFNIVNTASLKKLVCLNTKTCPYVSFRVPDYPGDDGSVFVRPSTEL
Procedure: RBL-1 cell 5-lipoxygenase and cyclooxygenase
Rat basophilic leukemia cells (RBL-1; 5×10^7 viable cells/mL) were disrupted by homogenization on ice (four 20 sec bursts) with a Brinkman polytron. Complete cell breakage was verified microscopically. The homogenate was then centrifuged at 10,000×g for 48 minutes at 4° C. The pellet was discarded and the supernatant was saved as the source of enzymes. The supernatant was pre-incubated for five minutes at 37° C. in the presence of 2 mM of CaCl2 and compound or vehicle (1% DMSO). The conversion of AA into 5-LO products was initiated by adding 10 μL (50 μCi) of 1-^14 C-AA to each tube and incubated at 37° C. for 20 minutes. The reaction was stopped by adjusting the pH of each sample to 3 to 3.5 with 2M formic acid. Samples were extracted with three volumes of chloroform to isolate the products of 5-LO formed during the reaction. Fractions were dried under nitrogen, then resuspended in 40 μL of chloroform and spotted onto silica gel HL plates. The plates were developed in A-9 solvent. The dried plates were analyzed using a Bioscan Imaging TLC scanner to determine the percentage of radiolabelled AA converted to 5-HETE in each sample.

[2] = biological target: T2, 5-LO in intact RBL-1 cells (Rattus norvegicus, UniProt P12527); experiment: 5-LO inhibition in intact RBL-1 cells (Procedure III); format: cell-based; settings: read-out: PROC. III IC50 5-LO
T2 construct: endogenous in cells; host or cells: intact RBL-1 cells
T2 sequence (P12527 1-673): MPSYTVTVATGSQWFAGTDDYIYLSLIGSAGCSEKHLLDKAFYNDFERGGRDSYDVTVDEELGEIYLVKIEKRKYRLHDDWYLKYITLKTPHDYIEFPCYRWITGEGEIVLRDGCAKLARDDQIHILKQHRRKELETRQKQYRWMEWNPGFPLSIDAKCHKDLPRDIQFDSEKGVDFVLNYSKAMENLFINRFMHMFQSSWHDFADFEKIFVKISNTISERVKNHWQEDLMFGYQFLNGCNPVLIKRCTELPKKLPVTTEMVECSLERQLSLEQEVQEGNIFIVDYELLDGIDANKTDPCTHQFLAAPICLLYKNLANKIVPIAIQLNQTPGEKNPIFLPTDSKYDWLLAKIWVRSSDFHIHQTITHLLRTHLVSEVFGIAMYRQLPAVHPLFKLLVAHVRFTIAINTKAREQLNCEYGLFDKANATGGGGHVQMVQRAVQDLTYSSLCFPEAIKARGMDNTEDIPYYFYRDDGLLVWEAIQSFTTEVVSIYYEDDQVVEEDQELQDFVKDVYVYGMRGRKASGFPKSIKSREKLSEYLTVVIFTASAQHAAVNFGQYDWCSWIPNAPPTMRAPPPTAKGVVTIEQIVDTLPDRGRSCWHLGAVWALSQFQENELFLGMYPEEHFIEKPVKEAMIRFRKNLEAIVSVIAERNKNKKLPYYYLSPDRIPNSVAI
Procedure: (§1) The ability to inhibit 5-LO and CO in intact RBL-1 cells was also evaluated. RBL-1 cells were maintained in culture in minimal essential medium (Bio*Whittaker, Walkersville, MD), containing 12.5% fetal calf serum, 10 mg/mL streptomycin, 10 I.U./mL penicillin G, […] gentamycin and 2 mM L-glutamine (Bio*Whittaker, Walkersville, MD). Cells were collected by centrifugation, washed once in HBSS, and resuspended at a concentration of 1×10^5 cells/mL. Cells were incubated in the presence of vehicle or drug then centrifuged at 800×g for 10 minutes at 4° C. The supernatant was removed by aspiration and the cells were resuspended in 0.5 mL of HBSS. The reaction was started by the addition of 20 μg/mL of calcium ionophore A-23187 (mixed calcium and magnesium salts, Calbiochem, La Jolla CA) and allowed to proceed for 15 minutes, then stopped by plunging the tubes into a slush ice bath. The conversion of AA to 5-LO products was initiated by the addition of 10 μL (50 uCi) of 1-^14 C-AA. Products were isolated by acidification and extraction, followed by thin layer chromatography analysis as described above. Radioactive areas corresponding to authentic 5-LO and CO products were quantitated by the Bioscan 2000 Imaging System.

CO in intact RBL-1 cells = experiment: CO inhibition in intact RBL-1 cells (Procedure III); format: cell-based, rat; settings: superscript = number of experiments, read-out: PROC. III IC50 CO
Procedure: as §1

inhibition at 3 µM [1] [%] | IC50 [1] [nM] | IC50 [2] [nM] | IC50 (CO in intact RBL-1 cells) [nM] | Compound
100 | 8070 | 7000 | 1400 | COc1ccc(-n2nc(CSC(=S)N(O)C(C)C)cc2-c2ccc(Cl)cc2)cc1 [1-B]
75 |  | 240 | 2400 | COc1ccc(-n2nc(CSC(=S)N(C)O)c(Cl)c2-c2ccc(Cl)cc2)cc1 [1-C]
0 | 1670 |  |  | COc1ccc(-n2nc(CSC(=S)N(O)C(C)C)c(Cl)c2-c2ccc(Cl)cc2)cc1 [1-D]
0 | 1960 | 2800 | 6500 | COc1ccc(-n2nc(CSC(=S)N(O)C(C)C)c(Br)c2-c2ccc(Cl)cc2)cc1 [1-E]
30 | 30 | 5600 | 180 | COc1ccc(-n2nc(CSC(=S)N(O)C(C)C)cc2-c2ccc(C)cc2)cc1 [1-G]
95 |  | 670 | 1600 | COc1ccc(-n2nc(CSC(=S)N(C)O)c(Cl)c2-c2ccc(C)cc2)cc1 [1-H]
